# Results as given in patent publication US20260250260A1, “POLYMORPH OF 7,8-DIHYDROXYFLAVONE, AND PREPARATION METHOD THEREFOR” (HUIANKAI (XIAMEN) PHARMACEUTICAL TECHNOLOGY CO., LTD., priority 2022, published 2026).
# Columns and labels:
# Type in all cases: physicochemical
# [1] = Crystal form conversion of comparative crystal forms on drying, at room temperature or on heating
# [2] = Dynamic vapor sorption analysis (DVS); conditions: range of 0%-95% relative humidity; mass gain relative to initial mass
# Procedure: Dynamic vapor sorption and desorption analysis was measured using DVS Intrinsic (SMS, UK). The test was performed in gradient mode with a humidity change of 50%-95%-0%-50%, with a change of 10% per humidity gradient in the range of 0% to 90%. The gradient endpoint was determined by dm/dt; the gradient endpoint lies where the dm/dt was less than 0.002% and maintained for 10 minutes. After the test was completed, the samples were analyzed by XRPD to confirm whether the solid morphology had changed.
# [3] = Dynamic solubility in biological medium (FaSSIF, FeSSIF, FaSSGF) and water
# Procedure: The 20 mg of 7,8-dihydroxyflavones in different crystal forms were weighed out separately and added into 4.0 mL of biological medium or water, and shaken at a constant temperature of 37° C. for 24 h. Samples were taken at 0.5 h, 2 h and 24 h, respectively, and the sampled solutions were filtered through 0.22 μm aquo-system filter membranes. Signal peak areas of the solutions were measured by HPLC, and finally, concentrations of the compounds in the solutions were calculated based on the peak areas, HPLC standard curves of the raw materials, and the dilution times. In addition, the supernatant at 24 h was taken to test pH, and the residual solid was subjected to the XRPD test. [table]
# [4] = Stability of different 7,8-dihydroxyflavone crystal forms (XRPD characterization); conditions: for crystal form stability (general statement): performance embodiment, no conditions stated
# Procedure: The stability of different 7,8-dihydroxyflavonoid crystal forms was studied under high temperature (60° C.), high humidity (25° C./92.5% RH), illumination (25° C./4500 Lux), and acceleration (40° C./75% RH) conditions, and samples were taken for XRPD characterization on day 7 and day 15, respectively.
# [5] = FaSSGF pH 1.6, residual solid after 24 h at 37° C.
# [6] = FaSSGF pH 1.6, supernatant at 24 h
# [7] = FaSSIF pH 6.5, residual solid after 24 h at 37° C.
# [8] = FaSSIF pH 6.5, supernatant at 24 h
# [9] = FeSSIF pH 5.0, residual solid after 24 h at 37° C.
# [10] = FeSSIF pH 5.0, supernatant at 24 h
# [11] = Water, residual solid after 24 h at 37° C.
structure (smiles),measurement,setting,value
"O=c1cc(-c2ccccc2)oc2c(O)c(O)ccc12 [crystal form A, 7,8-dihydroxyflavone]",crystal form conversion,[1]; heated to 130° C.,convert to mixed crystals containing the crystal form F
same,crystal form conversion,[1]; heated to 160° C.,convert to mixed crystals containing the crystal form F and the crystal form J
same,crystal form conversion,[1]; under sufficient drying,convert to the crystal form N
"O=c1cc(-c2ccccc2)oc2c(O)c(O)ccc12 [crystal form S, 7,8-dihydroxyflavone]",crystal form conversion,[1]; at room temperature,convert to the crystal form C
"O=c1cc(-c2ccccc2)oc2c(O)c(O)ccc12 [crystal form B, 7,8-dihydroxyflavone]",crystal form conversion,[1]; at 180° C.,convert to mixed crystals containing the crystal form F and the crystal form J
same,crystal form conversion,[1]; at room temperature,tend to convert to the crystal form C
same,crystal form conversion,[1]; heated to 110° C.,some characteristic peaks of the crystal form J will appear
"O=c1cc(-c2ccccc2)oc2c(O)c(O)ccc12 [Crystal form C, 7,8-dihydroxyflavone]",weight gain in the dynamic vapor sorption plot,[2],less than 0.1%
same,Solubility 0.5 h,"[3]; FaSSGF pH 1.6, 37° C.",2.5 µg/mL
same,Solubility 2 h,"[3]; FaSSGF pH 1.6, 37° C.",2.2 µg/mL
same,Solubility 24 h,"[3]; FaSSGF pH 1.6, 37° C.",2.4 µg/mL
same,Residual solid XRPD,[3]; [5],Crystal form C
same,Final pH,[3]; [6],1.6
same,Solubility 0.5 h,"[3]; FaSSIF pH 6.5, 37° C.",9.0 µg/mL
same,Solubility 2 h,"[3]; FaSSIF pH 6.5, 37° C.",10.2 µg/mL
same,Solubility 24 h,"[3]; FaSSIF pH 6.5, 37° C.",9.8 µg/mL
same,Residual solid XRPD,[3]; [7],Crystal form C
same,Final pH,[3]; [8],6.5
same,Solubility 0.5 h,"[3]; FeSSIF pH 5.0, 37° C.",33.5 µg/mL
same,Solubility 2 h,"[3]; FeSSIF pH 5.0, 37° C.",33.9 µg/mL
same,Solubility 24 h,"[3]; FeSSIF pH 5.0, 37° C.",33.2 µg/mL
same,Residual solid XRPD,[3]; [9],Crystal form C
same,Final pH,[3]; [10],5.0
same,Solubility 0.5 h,"[3]; Water, 37° C.",2.6 µg/mL
same,Solubility 2 h,"[3]; Water, 37° C.",3.1 µg/mL
same,Solubility 24 h,"[3]; Water, 37° C.",3.3 µg/mL
same,Residual solid XRPD,[3]; [11],Crystal form C
same,Final pH,"[3]; Water, supernatant at 24 h",5.5
same,Result on day 7 (XRPD),[4]; Acceleration 40° C./75% RH,No change
same,Result on day 15 (XRPD),[4]; Acceleration 40° C./75% RH,No change
same,Result on day 7 (XRPD),[4]; High humidity 25° C./92.5% RH,No change
same,Result on day 15 (XRPD),[4]; High humidity 25° C./92.5% RH,No change
same,Result on day 7 (XRPD),[4]; High temperature 60° C.,No change
same,Result on day 15 (XRPD),[4]; High temperature 60° C.,No change
same,Result on day 7 (XRPD),[4]; Illumination 25° C./4500 Lux,No change
same,Result on day 15 (XRPD),[4]; Illumination 25° C./4500 Lux,No change
same,crystal form stability (general statement),[4],stable and does not suffer from crystal transformation
"O=c1cc(-c2ccccc2)oc2c(O)c(O)ccc12 [crystal form M, 7,8-dihydroxyflavone]",crystal form conversion,[1]; at room temperature,convert to the crystal form C
"O=c1cc(-c2ccccc2)oc2c(O)c(O)ccc12 [crystal form E, 7,8-dihydroxyflavone]",crystal form conversion,[1]; at room temperature,convert to the crystal form N
"O=c1cc(-c2ccccc2)oc2c(O)c(O)ccc12 [crystal form R, 7,8-dihydroxyflavone]",crystal form conversion,[1]; at room temperature,cannot exist at room temperature for a long period
"O=c1cc(-c2ccccc2)oc2c(O)c(O)ccc12 [crystal form F, 7,8-dihydroxyflavone]",crystal form conversion,[1]; at room temperature,convert to the crystal form B
same,crystal form conversion,[1]; heated to 220° C.,convert to mixed crystals of the crystal form J and the crystal form P
"O=c1cc(-c2ccccc2)oc2c(O)c(O)ccc12 [crystal form T, 7,8-dihydroxyflavone]",crystal form conversion,[1]; at room temperature,cannot exist at room temperature for a long period
"O=c1cc(-c2ccccc2)oc2c(O)c(O)ccc12 [crystal form G, 7,8-dihydroxyflavone]",crystal form conversion,[1]; heated to 140° C.,convert to the crystal form T which has a small amount of crystal form J
"O=c1cc(-c2ccccc2)oc2c(O)c(O)ccc12 [Crystal form P, 7,8-dihydroxyflavone]",weight gain in the dynamic vapor sorption plot,[2],less than 0.1%
same,Solubility 0.5 h,"[3]; FaSSGF pH 1.6, 37° C.",8.6 µg/mL
same,Solubility 2 h,"[3]; FaSSGF pH 1.6, 37° C.",8.6 µg/mL
same,Solubility 24 h,"[3]; FaSSGF pH 1.6, 37° C.",5.6 µg/mL
same,Residual solid XRPD,[3]; [5],Crystal form P
same,Final pH,[3]; [6],1.6
same,Solubility 0.5 h,"[3]; FaSSIF pH 6.5, 37° C.",24.3 µg/mL
same,Solubility 2 h,"[3]; FaSSIF pH 6.5, 37° C.",25.9 µg/mL
same,Solubility 24 h,"[3]; FaSSIF pH 6.5, 37° C.",20.5 µg/mL
same,Residual solid XRPD,[3]; [7],Crystal form P
same,Final pH,[3]; [8],6.4
same,Solubility 0.5 h,"[3]; FeSSIF pH 5.0, 37° C.",74.5 µg/mL
same,Solubility 2 h,"[3]; FeSSIF pH 5.0, 37° C.",74.3 µg/mL
same,Solubility 24 h,"[3]; FeSSIF pH 5.0, 37° C.",71.2 µg/mL
same,Residual solid XRPD,[3]; [9],Crystal form P
same,Final pH,[3]; [10],5.0
same,Solubility 0.5 h,"[3]; Water, 37° C.",11.2 µg/mL
same,Solubility 2 h,"[3]; Water, 37° C.",10.6 µg/mL
same,Solubility 24 h,"[3]; Water, 37° C.",10.6 µg/mL
same,Residual solid XRPD,[3]; [11],Crystal form P
same,Final pH,"[3]; Water, supernatant at 24 h",4.6
same,Result on day 7 (XRPD),[4]; Acceleration 40° C./75% RH,No change
same,Result on day 15 (XRPD),[4]; Acceleration 40° C./75% RH,No change
same,Result on day 7 (XRPD),[4]; High humidity 25° C./92.5% RH,No change
same,Result on day 15 (XRPD),[4]; High humidity 25° C./92.5% RH,No change
same,Result on day 7 (XRPD),[4]; High temperature 60° C.,No change
same,Result on day 15 (XRPD),[4]; High temperature 60° C.,No change
same,Result on day 7 (XRPD),[4]; Illumination 25° C./4500 Lux,No change
same,Result on day 15 (XRPD),[4]; Illumination 25° C./4500 Lux,No change
same,crystal form stability (general statement),[4],stable and does not suffer from crystal transformation
"O=c1cc(-c2ccccc2)oc2c(O)c(O)ccc12 [crystal form K, 7,8-dihydroxyflavone]",crystal form conversion,[1]; heated to 150° C. and then cooled to room temperature,convert to mixed crystals of the crystal form F and the crystal form J
"O=c1cc(-c2ccccc2)oc2c(O)c(O)ccc12 [Crystal form N, 7,8-dihydroxyflavone]",weight gain in the dynamic vapor sorption plot,[2],less than 0.1%
same,Solubility 0.5 h,"[3]; FaSSGF pH 1.6, 37° C.",13.6 µg/mL
same,Solubility 2 h,"[3]; FaSSGF pH 1.6, 37° C.",18.7 µg/mL
same,Solubility 24 h,"[3]; FaSSGF pH 1.6, 37° C.",16.1 µg/mL
same,Residual solid XRPD,[3]; [5],Crystal form N
same,Final pH,[3]; [6],1.6
same,Solubility 0.5 h,"[3]; FaSSIF pH 6.5, 37° C.",35.8 µg/mL
same,Solubility 2 h,"[3]; FaSSIF pH 6.5, 37° C.",38.7 µg/mL
same,Solubility 24 h,"[3]; FaSSIF pH 6.5, 37° C.",36.5 µg/mL
same,Residual solid XRPD,[3]; [7],Crystal form N
same,Final pH,[3]; [8],6.4
same,Solubility 0.5 h,"[3]; FeSSIF pH 5.0, 37° C.",111.9 µg/mL
same,Solubility 2 h,"[3]; FeSSIF pH 5.0, 37° C.",114.2 µg/mL
same,Solubility 24 h,"[3]; FeSSIF pH 5.0, 37° C.",107.6 µg/mL
same,Residual solid XRPD,[3]; [9],Crystal form N
same,Final pH,[3]; [10],5.0
same,Solubility 0.5 h,"[3]; Water, 37° C.",15.1 µg/mL
same,Solubility 2 h,"[3]; Water, 37° C.",11.8 µg/mL
same,Solubility 24 h,"[3]; Water, 37° C.",3.1 µg/mL
same,Residual solid XRPD,[3]; [11],Crystal form C
same,Final pH,"[3]; Water, supernatant at 24 h",5.2
same,Result on day 7 (XRPD),[4]; High temperature 60° C.,No change
same,Result on day 15 (XRPD),[4]; High temperature 60° C.,No change
same,crystal form stability (general statement),[4],stable and does not suffer from crystal transformation
"O=c1cc(-c2ccccc2)oc2c(O)c(O)ccc12 [crystal form O, 7,8-dihydroxyflavone]",crystal form conversion,[1]; at room temperature,convert to the crystal form C
"O=c1cc(-c2ccccc2)oc2c(O)c(O)ccc12 [crystal form Q, 7,8-dihydroxyflavone]",crystal form conversion,[1]; at room temperature,convert to the crystal form C
"O=c1cc(-c2ccccc2)oc2c(O)c(O)ccc12 [crystal form H, 7,8-dihydroxyflavone]",crystal form conversion,[1]; at room temperature,convert to other crystal forms
